Consider 28 compounds from US6177431A, “Tetrahydropyrimidine derivatives” (priority 1996, dated 2001).

SMILES strings stand for the structures. Where two headings read alike, the source gives them in different places.

Series [1] relates to caterpillars of the owlet moth (Spodoptera frugiperda). The series can be described thus: Spodoptera frugiperda test. It counts as in vivo. The conditions noted are these: for mortality at 0.001 %: Spodoptera frugiperda, in Brassica oleracea, 72 h, read-out: destruction; for destruction: after 3 days, active compound concentration 0.001%, cabbage leaves dipped.
The subject of series [2] is green peach aphids (Myzus persicae). Put plainly: Myzus test. It counts as in vivo. The conditions noted are these: for mortality at 0.001 %: Myzus persicae, 24 h, read-out: destruction. The source says:
(§1) Solvent: 7 parts by weight of dimethylformamide

Series [3] concerns mustard beetle larvae (Phaedon cochleariae). Put plainly: Phaedon larvae test. The conditions noted are these: for mortality at 0.001 %: Phaedon cochleariae, in Brassica oleracea, 72 h, read-out: destruction.
A short description of series [4]: Lg. P, octanol/water partition coefficient determined by reversed phase HPLC. It counts as physicochemical. The source says:
*^) Lg. P = Logarithm of the partition coefficient P of the substance
between the solvents octanol and water, determined experimentally by […]

Series [5] relates to caterpillars of the diamondback moth (Plutella maculipennis). Put plainly: Plutella test. Format: in vivo. Particulars: for mortality at 0.01 %: Plutella, in Brassica oleracea, 72 h, read-out: destruction.
Text: as §1

Series [6] concerns larvae of the green rice leaf hopper (Nephotettix cincticeps). Put plainly: Nephotettix test. The conditions noted are these: 144 h, read-out: destruction. Format: in vivo.
Text: as §1

Where [7] appears, read: after 1 day, active compound concentration 0.001%, infested broad bean seedlings dipped.
Setting [8] is: octanol/water, determined experimentally by reversed phase HPLC, read-out: Lg. P (logarithm of the partition coefficient P).

For `COC(=O)CCCCCCCN1CC([N+](=O)[O-])=C2N(Cc3cnc(Cl)s3)CCN2C1` [Example 20], the mortality at 0.001 % in series [1], in series [2] (setting [7]) and in series [3] was 100% in each case.
Take `CCC(C)(C)N1CC([N+](=O)[O-])=C2N(Cc3cnc(Cl)s3)CCN2C1` [(A), reference compound]: the destruction entry is “no action” in series [1] and “no action” in series [3] (after 3 days, active compound concentration 0.001%, cabbage leaves dipped).
For `CC(C)OC(=O)CCN1CC([N+](=O)[O-])=C2N(Cc3ccc(Cl)nc3)CCN2C1` [Example 23], the chromatographic logP in series [4] (reversed phase hplc) was determined as 1.51. The mortality at 0.001 % in series [3] was determined as 100%.
Consider `COC(CN1CC([N+](=O)[O-])=C2N(Cc3cnc(Cl)s3)CCN2C1)OC` [(B), reference compound], for which the mortality at 0.001 % in series [1] and in series [3] was 30% throughout.
In the case of `O=C(CN1CC([N+](=O)[O-])=C2N(Cc3ccc(Cl)nc3)CCN2C1)OCc1ccc(Cl)cc1Cl` [Example 14], the mortality at 0.01 % in series [5] came out at 100%. Further, the mortality at 0.001 % in series [1] and in series [3] was 100% throughout. The mortality at 0.0001 % in series [6] came to 100%.
For the compound `O=C(CN1CC([N+](=O)[O-])=C2N(Cc3ccc(Cl)nc3)CCN2C1)OCc1ccc(Cl)nc1` [Example 7], the mortality at 0.0001 % in series [6] came out at 100%. The mortality at 0.001 % in series [3] stood at 100%.
For `CCOC(=O)C(Cc1ccccc1)N1CC([N+](=O)[O-])=C2N(Cc3ccc(Cl)nc3)CCN2C1` (stereo not shown) [Example 27], the chromatographic logP in series [4] (setting [8]) turned out to be 1.99.
Consider `COC(=O)CN1CC([N+](=O)[O-])=C2N(Cc3cnc(Cl)s3)CCN2C1` [Example 6], for which the mortality at 0.01 % in series [5] is 100%. The mortality at 0.0001 % in series [6] came to 100%. Also, in series [2] (in Vicia faba), the mortality at 0.001 % stood at 90%.
Regarding `O=C(CN1CC([N+](=O)[O-])=C2N(Cc3ccc(Cl)nc3)CCN2C1)Nc1ccccc1` [Example 3], the mortality at 0.001 % in series [3] was 100%.
`O=C(CN1CC([N+](=O)[O-])=C2N(Cc3ccc(Cl)nc3)CCN2C1)OCc1ccc(Cl)c(Cl)c1` [Example 12]: the mortality at 0.01 % in series [5] stood at 100%. For the same compound, the mortality at 0.001 % in series [1] and in series [3] was 100% each time.
Turning to `CN1CC([N+](=O)[O-])=C2N(Cc3cnc(Cl)s3)CCN2C1` [(D), reference compound], the destruction entry in series [1] was “no action”.
Regarding `CCOC(=O)CCCN1CC([N+](=O)[O-])=C2N(Cc3ccc(Cl)nc3)CCN2C1` [Example 5], the chromatographic logP in series [4] (reversed phase hplc) turned out to be 0.94.
Turning to `COC(=O)CCCN1CC([N+](=O)[O-])=C2N(Cc3cnc(Cl)s3)CCN2C1` [Example 16], the chromatographic logP in series [4] (setting [8]) came out at 1.13. Further, the mortality at 0.0001 % in series [6] stood at 100%. Further, the mortality at 0.001 % in series [2] (setting [7]) worked out at 90%.
Consider `COC(=O)CCCCCCCN1CC([N+](=O)[O-])=C2N(Cc3ccc(Cl)nc3)CCN2C1` [Example 21], for which, in series [4] (setting [8]), the chromatographic logP amounted to 1.73. The mortality at 0.01 % in series [5] turned out to be 100%.
Consider `O=[N+]([O-])C1=C2N(Cc3ccc(Cl)nc3)CCN2CN(Cc2ccc(Cl)cc2)C1` [(F), reference compound], for which the destruction entry in series [1] and in series [2] (setting [7]) was “no action” in each case.
On to `O=C(CN1CC([N+](=O)[O-])=C2N(Cc3ccc(Cl)nc3)CCN2C1)OCc1c(Cl)cccc1Cl` [Example 13], for which the mortality at 0.01 % in series [5] is 100%.
Turning to `CCCCCCCCOC(=O)CN1CC([N+](=O)[O-])=C2N(Cc3ccc(Cl)nc3)CCN2C1` [Example 11], the mortality at 0.01 % in series [5] is 100%. The mortality at 0.001 % in series [1] and in series [3] was 100% in each case.
Take `Cc1ccc(COC(=O)CN2CC([N+](=O)[O-])=C3N(Cc4ccc(Cl)nc4)CCN3C2)cc1` [Example 10]: the mortality at 0.01 % in series [5] came to 100%. Besides, the mortality at 0.001 % in series [1] and in series [3] was 100% in each case. The mortality at 0.0001 % in series [6] was determined as 100%.
For the compound `O=C(O)CCCCCN1CC([N+](=O)[O-])=C2N(Cc3ccc(Cl)nc3)CCN2C1` [Example 4], the chromatographic logP in series [4] (reversed phase hplc) was 1.07. Moreover, the figures for the mortality at 0.001 % in series [2] (in Vicia faba) and in series [3] were 80% and 100%, respectively.
For the compound `CCOC(=O)CN1CC([N+](=O)[O-])=C2N(Cc3ccc(Cl)nc3)CCN2C1` [(G), reference compound], the mortality at 0.001 % in series [1] was determined as 30%.
Compound `COC(=O)CCCN1CC([N+](=O)[O-])=C2N(Cc3ccc(Cl)nc3)CCN2C1` [Example 15] returned a chromatographic logP in series [4] (reversed phase hplc) of 1.12. Also, the mortality at 0.01 % in series [5] was found to be 100%. The mortality at 0.001 % in series [1] turned out to be 100%; in series [2] (in Vicia faba), 98%. In addition, the mortality at 0.0001 % in series [6] came to 100%.
Take `CCOC(=O)CCN1CC([N+](=O)[O-])=C2N(Cc3ccc(Cl)nc3)CCN2C1` [(E), reference compound]: the destruction result in series [5] (after 3 days, active compound concentration 0.01%, cabbage leaves dipped) is given as “no action”. The mortality at 0.0001 % in series [6] worked out at 20%. Also, the mortality at 0.001 % in series [2] (in Vicia faba) came out at 10%; in series [3], 20%.
For the compound `CC(C)OC(=O)CN1CC([N+](=O)[O-])=C2N(Cc3ccc(Cl)nc3)CCN2C1` [Example 9], the mortality at 0.01 % in series [5] was 100%. Also, the mortality at 0.001 % in series [1] and in series [3] was 100% in each case. The mortality at 0.0001 % in series [6] turned out to be 100%.
Consider `COC(=O)C(C(C)C)N1CC([N+](=O)[O-])=C2N(Cc3ccc(Cl)nc3)CCN2C1` (stereo not shown) [Example 28], for which, in series [4] (reversed phase hplc), the chromatographic logP was determined as 1.55.
For `COC(=O)CCCCN1CC([N+](=O)[O-])=C2N(Cc3ccc(Cl)nc3)CCN2C1` [Example 19], the mortality at 0.01 % in series [5] was determined as 100%. Moreover, the mortality at 0.001 % in series [1] turned out to be 100%; in series [2] (in Vicia faba) it was 95%; in series [3], 100%.
Consider `CCOC(=O)CCCN1CC([N+](=O)[O-])=C2N(Cc3cnc(Cl)s3)CCN2C1` [Example 17], for which the chromatographic logP in series [4] (setting [8]) is 1.35. Also, in series [5], the mortality at 0.01 % turned out to be 100%. In addition, in series [6], the mortality at 0.0001 % turned out to be 100%.
With `COC(=O)CN1CC([N+](=O)[O-])=C2N(Cc3ccc(Cl)nc3)CCN2C1` [Example 1, 6,7-dihydro-1-(2-chloropyridin-5-yl-methyl)-6-methoxycarbonyl-methyl-8-nitro-(5H)-imidazolidino-[2,3-f]-pyrimidine], the mortality at 0.01 % in series [5] came to 100%. For the same compound, the values for the mortality at 0.001 % in series [2] (in Vicia faba) and in series [3] were 99% and 100%, respectively.
Regarding `CCCCCCN1CC([N+](=O)[O-])=C2N(Cc3cnc(Cl)s3)CCN2C1` [(C), reference compound], the values for the mortality at 0.001 % in series [1] and in series [3] were 30% and 40%, respectively.
